Assays:
CRMM2 cells = assay: Annexin-V-FITC / Propidium Iodide FACS, CRMM2; assay type: cell-based, Human
Source text: Depending on the nature and intracellular localization of a PS, the light dose, and the cell type, PDT is known to provoke either necrosis, apoptosis, or autophagy. In order to investigate the death mechanism induced by green light-activated TLD1433 in CRMM1 and CRMM2 cells, the cells were stained with Annexin V and propidium iodide, and further analysed by fluorescence-activated cell sorting (FACS).
Figure 3 Green light irradiation of TLD1433 induces apoptosis and necrosis in CRMM1 and CRMM2 cells. (A) CRMM1 and (C) CRMM2 were stained with Annexin-V-FITC and Propidium Iodide. The percentages of live, early apoptotic, later apoptotic and necrotic cells in CRMM1 (B) and CRMM2 (D) were counted by FACS. Results are presented as means ± SD from three independent experiments. […]

[1] = system: CM engrafted zebrafish embryos; assay: Maximum tolerated dose in CM engrafted zebrafish embryos (ectopic and orthotopic model); assay type: in vivo, Zebrafish (Danio rerio); settings: light-activated
Procedure: To engage both CM models for testing the efficacy of TLD1433 as a potential new PDT treatment strategy to combat CM growth, first, the MTD of TLD1433 delivered into zebrafish embryos engrafted with CM cells was measured (Table 2) following the same procedure as already described for wild type embryos (Figure 5 and Table 2). Engrafted embryos were more sensitive to light-activated TLD1433 than non-engrafted embryos (Table 2). MTD concentrations of 4.6 nM and 2.3 mM were delivered by WA, IV and RO administration. […] The TLD1433 concentration in these experiments was not increased further as the initial treatment was already at the pre-determined MTD.
For determining the MTD of the WA of the TLD1433 solution in wild type zebrafish, solutions of 2.3 nM, 4.6 nM, 9.2 nM, 11.5 nM, 23 nM were made before the experiment. At 2.5, 3.5, 4.5, 5.5 dpf, TLD1433 was added to the fish water and maintained for 12 h. At 3, 4, 5, 6 dpf, the fish water was refreshed and after 1 h, embryos were exposed to green light for 90 min (520 nm, 21 mW/cm^2, 114 J/cm^2). For the IV and RO administration, TLD1433 solutions (1.15 mM, 2.3 mM, 4.6 mM, 9.2 mM, 11.5 mM) were prepared before the experiment. At 3, 4, 5, 6 dpf, 1nL of TLD1433 was injected via the dorsal vein or the RO site and maintained for 1 h. After each of the 4 injections, the embryos were exposed to green light for 90 min (520 nm, 21 mW/cm^2, 114 J/cm^2). The images of treated and wild type embryos at 6 dpf were taken using a DFC420C camera coupled to a Leica MZ16FA fluorescence microscope. In order to determine the MTD of tumour cell bearing zebrafish, TLD1433 was performed according to the same procedure, delivered by WA, IV and […] administration as described above for the wild type embryos.

What does the source list for `Cc1ccnc(-c2cc(C)ccn2)c1.Cc1ccnc(-c2cc(C)ccn2)c1.[Cl-].[Cl-].[Ru+2].c1csc(-c2ccc(-c3ccc(-c4nc5c6cccnc6c6ncccc6c5[nH]4)s3)s2)c1` [TLD1433]?
cell fate by FACS (in words) (CRMM2 cells; CRMM2, dark TLD1433 group): most cells were found alive; cell fate by FACS (in words) (CRMM2 cells; CRMM2, light-activated TLD1433 group): about half of the cells were found dead; Maximum Tolerated Dose (MTD) ([1]; Intravenous 1 nL): 2.3 mM; Maximum Tolerated Dose (MTD) ([1]; Retro-orbital 1 nL): 2.3 mM; Maximum Tolerated Dose (MTD) ([1]; Water administration): 4.6e-06 mM

From article PMC7139549, “TLD1433 Photosensitizer Inhibits Conjunctival Melanoma Cells in Zebrafish Ectopic and Orthotopic Tumour Models” (Cancers, 2020)
